Test results from US6667335B2, “Imidazole derivatives” (Hoffmann-La Roche Inc., priority 2001, dated 2003).

Assays:
NMDA-receptor subtype 2B = biological target: T1, NMDA-receptor subtype 2B (Rattus norvegicus, UniProt P35439+Q00960); assay: 3H-Ro 25-6981 binding (displacement) on rat brain membranes; details: displacement of 5 nM 3H-Ro 25-6981, rat whole brain membranes (minus cerebellum and medulla oblongata), 2 hours at 4° C.
T1 construct: Membranes were prepared by homogenization of the whole brain minus cerebellum and medulla oblongata; from tissue; host or cells: rat whole brain minus cerebellum and medulla oblongata, membrane preparation
Procedure: ^3H[R-(R*,S*)]-(α-(4-Hydroxy-phenyl)-β-methyl-4-(phenyl-methyl)-1-piperidine propanol)binding
Male Füllinsdorf albino rats weighing between 150-200 g were used. Membranes were prepared by homogenization of the whole brain minus cerebellum and medulla oblongata with a Polytron (10.000 rpm, 30 seconds), in 25 volumes of a cold Tris-HCl 50 mM, EDTA 10 mM, pH 7.1 buffer. The homogenate was centrifuged at 48,000 g for 10 minutes at 4° C. The pellet was resuspended using the Polytron in the same volume of buffer and the homogenate was incubated at 37° C. for 10 minutes. After centrifugation the pellet was homogenized in the same buffer and frozen at −80° C. for at least 16 hours but not more than 10 days. For the binding assay the homogenate was thawed at 37° C., centrifuged and the pellet was washed three times as above in a Tris-HCl 5 mM, pH 7.4 cold buffer. The final pellet was resuspended in the same buffer and used at a final concentration of […]. ^3H-Ro 25-6981 binding experiments were performed using a Tris-HCl 50 mM, pH 7.4 buffer. For displacement experiments 5 nM of ^3H-Ro 25-6981 were used and non specific binding was measured using 10 mM of tetrahydroisoquinoline and usually it accounts for 10% of the total. The incubation time was 2 hours at 4° C. and the assay was stopped by filtration on Whatmann GF/B glass fiber filters (Unifilter-96, Packard, Zürich, Switzerland). The filters were washed 5 times with cold buffer. The radioactivity on the filter was counted on a Packard Top-count microplate scintillation counter after addition of […] of microscint 40 (Canberra Packard S.A., Zuirich, Switzerland).
The effects of compounds were measured using a minimum of 8 concentrations and repeated at least once.

T1 sequence (Q00960 27-1482, other chains not shown): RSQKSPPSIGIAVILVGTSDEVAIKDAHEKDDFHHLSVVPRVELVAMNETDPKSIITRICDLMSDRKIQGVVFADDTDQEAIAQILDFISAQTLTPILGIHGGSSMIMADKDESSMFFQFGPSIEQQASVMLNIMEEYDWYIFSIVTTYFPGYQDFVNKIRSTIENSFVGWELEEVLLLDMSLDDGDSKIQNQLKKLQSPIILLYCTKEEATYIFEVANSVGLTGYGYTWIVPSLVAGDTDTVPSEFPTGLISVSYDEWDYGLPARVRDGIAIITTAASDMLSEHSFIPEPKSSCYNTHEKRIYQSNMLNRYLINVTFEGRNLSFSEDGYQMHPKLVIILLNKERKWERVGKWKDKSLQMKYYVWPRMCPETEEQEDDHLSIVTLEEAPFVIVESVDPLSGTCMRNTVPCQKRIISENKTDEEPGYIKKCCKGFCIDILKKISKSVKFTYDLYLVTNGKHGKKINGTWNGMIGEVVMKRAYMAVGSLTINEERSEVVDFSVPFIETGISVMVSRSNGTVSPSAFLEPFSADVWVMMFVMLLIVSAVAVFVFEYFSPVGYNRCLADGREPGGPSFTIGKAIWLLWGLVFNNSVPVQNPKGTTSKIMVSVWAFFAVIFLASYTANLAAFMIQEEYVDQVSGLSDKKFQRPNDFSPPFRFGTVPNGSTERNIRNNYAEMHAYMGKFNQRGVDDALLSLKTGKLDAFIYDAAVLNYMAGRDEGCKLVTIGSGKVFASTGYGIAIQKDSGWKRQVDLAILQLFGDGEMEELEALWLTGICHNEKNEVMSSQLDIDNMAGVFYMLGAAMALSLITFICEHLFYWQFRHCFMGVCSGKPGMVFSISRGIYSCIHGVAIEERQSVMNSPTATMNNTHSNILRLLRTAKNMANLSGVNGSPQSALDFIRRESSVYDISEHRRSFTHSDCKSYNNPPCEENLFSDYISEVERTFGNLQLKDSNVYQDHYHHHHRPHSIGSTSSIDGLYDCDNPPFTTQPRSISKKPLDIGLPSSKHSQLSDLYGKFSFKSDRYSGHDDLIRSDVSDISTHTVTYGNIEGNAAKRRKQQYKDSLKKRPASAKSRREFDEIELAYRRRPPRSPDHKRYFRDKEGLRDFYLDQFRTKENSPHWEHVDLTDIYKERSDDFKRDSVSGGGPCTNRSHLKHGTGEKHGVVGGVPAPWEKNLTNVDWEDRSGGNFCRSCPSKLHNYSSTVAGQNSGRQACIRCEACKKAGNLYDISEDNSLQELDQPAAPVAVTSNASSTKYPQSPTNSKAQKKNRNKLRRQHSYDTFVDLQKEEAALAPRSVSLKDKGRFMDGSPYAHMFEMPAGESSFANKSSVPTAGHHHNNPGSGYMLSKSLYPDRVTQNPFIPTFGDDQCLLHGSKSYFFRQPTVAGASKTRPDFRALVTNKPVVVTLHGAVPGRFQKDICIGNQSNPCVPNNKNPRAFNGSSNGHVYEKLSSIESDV

Row | Structure (SMILES) | melting point | IC50 (NMDA-receptor subtype 2B) [nM]
1 | Cc1cc(-n2cnc(Cn3ccnc3C)c2)ccc1F.Cl.Cl [Example 24, 1H-Imidazole, 1-[[1-(4-Fluoro-3-methylphenyl)-1H-imidazol-4-yl]methyl]-2-methyl-, Hydrochloride (1:2)] | 210 to 212 °C | 16
2 | Cc1ccc(-n2cnc(Cn3ccnc3C)c2)cc1C(F)(F)F.Cl.Cl [Example 39, 1H-Imidazole, 2-Methyl-1-[[1-[4-methyl-3-(trifluoromethyl)phenyl]-1H-imidazol-4-yl]methyl]-, Hydrochloride (1:2)] | > 235 °C (dec.) | 43
3 | Cc1nccn1Cc1cn(-c2ccc(Cl)cc2)cn1.Cl.Cl [Example 48, 1H-Imidazole, 1-[[1-(4-Chlorophenyl)-1H-imidazol-4-yl]methyl]-2-methyl-, Hydrochloride (1:2)] | 243 to 244 °C | 61
4 | Cc1nccn1Cc1cn(-c2ccc3c(c2)OCO3)cn1.Cl.Cl [Example 52, 1H-Imidazole, 1-[[1-(1,3-Benzodioxol-5-yl)-1H-imidazol-4-yl]methyl]-2-methyl-, Hydrochloride (1:2)] | > 250 °C | 78
5 | CCc1nccn1Cc1cn(-c2ccc(OC)c(Cl)c2)cn1.Cl.Cl [Example 58, 1H-Imidazole, 1-[[1-(3-Chloro-4-methoxyphenyl)-1H-imidazol-4-yl]methyl]-2-ethyl-, Hydrochloride (1:2)] | 220 to 221 °C | 93
6 | Cc1ccc(-n2cnc(Cn3ccnc3C)c2)cc1Cl.Cl.Cl [Example 87, 1H-Imidazole, 1-[[1-(3-Chloro-4-methylphenyl)-1H-imidazol-4-yl]methyl]-2-methyl-, Hydrochloride (1:2)] | 242 to 243 °C | 17
7 | Cc1ccc(-n2cnc(Cn3ccnc3)c2)cc1Cl.Cl.Cl [Example 89, 1H-Imidazole, 1-(3-Chloro-4-methylphenyl)-4-(1H-imidazol-1-yl-methyl)-, Hydrochloride (1:2)] | 218 to 220 °C | 48
8 | Cc1nccn1Cc1cn(-c2ccc(F)c(Cl)c2)cn1.Cl.Cl [Example 93, 1H-Imidazole, 1-[[1-(3-Chloro-4-fluorophenyl)-1H-imidazol-4-yl]methyl]-2-methyl-, Hydrochloride (1:2)] | 224 to 225 °C | 20
9 | CCc1nccn1Cc1cn(-c2ccc(F)c(Cl)c2)cn1.Cl.Cl [Example 94, 1H-Imidazole, 1-[[1-(3-Chloro-4-fluorophenyl)-1H-imidazol-4-yl]methyl]-2-ethyl-, Hydrochloride (1:2)] | 248 to 250 °C | 21
10 | Cc1nccn1Cc1ncn(-c2ccc(Cl)c(Cl)c2)c1C.Cl.Cl [Example 103, 1H-Imidazole, 1-(3,4-Dichlorophenyl)-5-methyl-4-[(2-methyl-1H-imidazol-1-yl)methyl]-, Hydrochloride (1:2)] | > 240 °C (dec.) | 43
11 | OCc1nccn1Cc1cn(-c2ccc(Cl)c(Cl)c2)cn1 [Example 109, {1-[1-(3,4-Dichloro-phenyl)-1H-imidazol-4-yl-methyl]-1H-imidazol-2-yl}-methanol] | 202 to 203 °C | 85
12 | Cc1nccn1Cc1cn(-c2cccc(SC(F)(F)F)c2)cn1.Cl.Cl [Example 144, 1H-Imidazole, 2-Methyl-1-[[1-[3-(trifluoromethylthio)phenyl]-1H-imidazol-4-yl]methyl]-, Hydrochloride (1:2)] | 169 to 170 °C | 38
13 | CC(C)c1cccc(-n2cnc(Cn3ccnc3)c2)c1.Cl.Cl [Example 154, 4-Imidazol-1-ylmethyl-1-(3-isopropyl-phenyl)-1H-imidazole Hydrochloride (1:2)] | 200 to 206 °C | 48
14 | Cl.Cl.Fc1ccc(-n2cnc(Cn3ccnc3)c2)cc1Br [Example 158, 1-(3-Bromo-4-fluoro-phenyl)-4-imidazol-1-ylmethyl-1H-imidazole Hydrochloride (1:2)] | 229 to 230 °C | 41
15 | CCc1cccc(-n2cnc(Cn3ccnc3CC)c2)c1.Cl.Cl [Example 160, 1H-Imidazole, 2-Ethyl-1-[[1-(3-ethylphenyl)-1H-imidazol-4-yl]methyl]-, Hydrochloride (1:2)] | > 200 °C (dec.) | 16
16 | CCc1cccc(-n2cnc(Cn3ccnc3)c2)c1.Cl.Cl [Example 161, 1-(3-Ethyl-phenyl)-4-imidazol-1-ylmethyl-1H-imidazole Hydrochloride (1:2)] | > 190 °C (dec.) | 50
17 | Cc1nccn1Cc1cn(-c2cccc(C3CC3)c2)cn1.Cl.Cl [Example 162, 1H-Imidazole, 1-[[1-(3-Cyclopropylphenyl)-1H-imidazol-4-yl]methyl]-2-methyl-, Hydrochloride (1:2)] | 174 to 175 °C | 16
18 | Cc1nccn1Cc1cn(-c2ccc(F)c(C(F)F)c2)cn1.Cl.Cl [Example 163, 1H-Imidazole, 1-[[1-(3-Difluoromethyl-4-fluorophenyl)-1H-imidazol-4-yl]methyl]-2-methyl-, Hydrochloride (1:2)] | 223 to 225 °C (dec.) | 17
19 | Cl.Cl.Fc1ccc(-n2cnc(Cn3ccnc3)c2)cc1C(F)F [Example 165, 1-(3-Difluoromethyl-4-fluoro-phenyl)-4-imidazol-1-ylmethyl-1H-imidazole Hydrochloride (1:2)] | 239 to 241 °C | 46
20 | CCc1nccn1Cc1cn(-c2cccc(SC)c2)cn1.Cl.Cl [Example 166, 1H-Imidazole, 2-Ethyl-1-[[1-[3-(methylthio)phenyl]-1H-imidazol-4-yl]methyl]-, Hydrochloride (1:2)] | > 200 °C (dec.) | 20
21 | Cc1nccn1Cc1cn(-c2cccc(OC(F)(F)F)c2)cn1.Cl.Cl [Example 170, 1H-Imidazole, 2-Methyl-1-[[1-[3-(trifluoromethoxy)phenyl]-1H-imidazol-4-yl]methyl]-, Hydrochloride (1:2)] | 221 to 223 °C | 39

These reach a lower IC50 (NMDA-receptor subtype 2B). Values come first.

Row | melting point | IC50 (NMDA-receptor subtype 2B) [nM] | Structure (SMILES)
22 | 238 to 239 °C | 14 | CCc1nccn1Cc1cn(-c2ccc(F)c(Br)c2)cn1.Cl.Cl [Example 156, 1H-Imidazole, 1-[[1-(3-Bromo-4-fluorophenyl)-1H-imidazol-4-yl]methyl]-2-ethyl-, Hydrochloride (1:2)]
23 | 232 to 233 °C | 14 | Cc1nccn1Cc1cn(-c2ccc(F)c(Br)c2)cn1.Cl.Cl [Example 157, 1H-Imidazole, 1-[[1-(3-Bromo-4-fluorophenyl)-1H-imidazol-4-yl]methyl]-2-methyl-, Hydrochloride (1:2)]
24 | > 200 °C (dec.) | 14 | CCc1cccc(-n2cnc(Cn3ccnc3C)c2)c1.Cl.Cl [Example 159, 1H-Imidazole, 1-[[1-(3-Ethylphenyl)-1H-imidazol-4-yl]methyl]-2-methyl-, Hydrochloride (1:2)]
25 | > 200 °C (dec.) | 13.5 | CC(F)(F)c1cc(-n2cnc(Cn3ccnc3)c2)ccc1F.Cl.Cl [Example 150, 1-[3-(1,1-Difluoro-ethyl)-4-fluoro-phenyl]-4-imidazol-1-ylmethyl-1H-imidazole Hydrochloride (1:2)]
26 | > 250 °C | 11 | CCNc1nccn1Cc1cn(-c2ccc(Cl)c(Cl)c2)cn1.Cl.Cl [Example 111, {1-[1-(3,4-Dichloro-phenyl)-1H-imidazol-4-yl-methyl]-1H-imidazol-2-yl}-ethyl-amine Hydrochloride (1:2)]
27 | > 200 °C (dec.) | 10 | Cc1nccn1Cc1cn(-c2cccc(C(C)C)c2)cn1.Cl.Cl [Example 152, 1H-Imidazole, 1-[[1-(3-Isopropylphenyl)-1H-imidazol-4-yl]methyl]-2-methyl-, Hydrochloride (1:2)]
28 | > 200 °C (dec.) | 9.2 | Cc1nccn1Cc1cn(-c2cccc(C(C)(F)F)c2)cn1.Cl.Cl [Example 147, 1H-Imidazole, 1-[[1-[3-(1,1-Difluoroethyl)phenyl]-1H-imidazol-4-yl]methyl]-2-methyl-, Hydrochloride (1:2)]
29 | > 200 °C (dec.) | 8.2 | Cc1nccn1Cc1cn(-c2ccc(F)c(C(C)(F)F)c2)cn1.Cl.Cl [Example 149, 1H-Imidazole, 1-[[1-[3-(1,1-Difluoroethyl)-4-fluorophenyl]-1H-imidazol-4-yl]methyl]-2-methyl-, Hydrochloride (1:2)]
30 | 130 to 134 °C (dec.) | 8 | CCc1nccn1Cc1cn(-c2cccc(C(C)(F)F)c2)cn1.Cl.Cl [Example 146, 1H-Imidazole, 1-[[1-[3-(1,1-Difluoroethyl)phenyl]-1H-imidazol-4-yl]methyl]-2-ethyl-, Hydrochloride (1:2)]
